The text below walks through data of patent US11453674B2, “Heterocyclic compound, preparation method and use thereof in medicine” (SUZHOU SINOVENT PHARMACEUTICALS CO., LTD., priority 2019, dated 2022).

In one experiment the target is T1, OAT1 (Homo sapiens, UniProt Q4U2R8).
T1 construct: host or cells: HEK293/OAT1 (hygromycin B selection)
T1 sequence (Q4U2R8 1-563): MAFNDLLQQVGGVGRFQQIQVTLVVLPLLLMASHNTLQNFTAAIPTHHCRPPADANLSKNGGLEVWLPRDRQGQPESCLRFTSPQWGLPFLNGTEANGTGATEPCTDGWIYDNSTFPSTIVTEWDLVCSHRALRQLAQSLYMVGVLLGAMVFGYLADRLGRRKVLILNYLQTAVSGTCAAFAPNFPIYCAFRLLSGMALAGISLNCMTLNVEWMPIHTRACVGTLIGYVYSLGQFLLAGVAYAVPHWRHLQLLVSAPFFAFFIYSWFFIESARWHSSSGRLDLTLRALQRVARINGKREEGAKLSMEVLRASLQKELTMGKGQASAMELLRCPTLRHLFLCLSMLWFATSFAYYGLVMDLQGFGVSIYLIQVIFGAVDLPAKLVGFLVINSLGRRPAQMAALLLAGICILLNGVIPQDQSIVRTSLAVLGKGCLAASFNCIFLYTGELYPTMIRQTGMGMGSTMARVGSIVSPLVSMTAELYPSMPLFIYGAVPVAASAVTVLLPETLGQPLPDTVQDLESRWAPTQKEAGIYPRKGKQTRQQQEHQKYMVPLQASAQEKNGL
In words: Inhibition of 6-carboxyfluorescein uptake in HEK293/OAT1 cells. In kind it is cell-based. Particulars: ratio of OAT1 IC50 to hURAT1 IC50 (selectivity). How it is done:
(§1) 1. Reagents and Consumables
(§2) 2. Culture Media and Solutions
(§3) Thaw medium: 90% DMEM+10% FBS+1× Pen/Strep, preserved at 4° C. for later use.
(§4) Culture medium: 90% DMEM+10% FBS+1× Pen/Strep+100 μg/mL Hygromycin B, preserved at 4° C. for later use.
(§5) 5× Matrigel: 1 vial of Matrigel was thawed overnight at 4° C., then diluted to 500 mL with cold DMEM. The resulting solution was preserved at 4° C. for later use after subpackaging.
(§6) Uptake assay buffer: 487.5 mL HBSS buffer was mixed with 12.5 mL 1M HEPES, with the final HEPES concentration being 25 mM. This was prepared right before the experiment.
(§7) 30 mM probenecid: 2 mg of the powder was dissolved in 233.62 μL of 100% DMSO. The resulting solution was preserved at −20° C. for later use after subpackaging.
(§8) The resulting solution was preserved at −20° C. for later use after subpackaging.
(§9) The resulting solution was preserved away from light at 4° C. for later use after subpackaging.
(§10) Envision multimode plate reader (with parameters as follows)
(§11) Emission wavelength: 590 nm
(§12) 4. Experimental Procedures
(§13) The cells were quickly taken out from a liquid nitrogen tank and shaken in a water bath at 37° C. until completely thawed. The cell suspension was quickly added to a pre-heated culture medium and centrifuged at 1000 rpm for 5 min. The supernatant was discarded. A fresh pre-heated culture medium was added for resuspension. The cell suspension was transferred into a 100 mm dish and incubated at 37° C. at 5% CO2.
(§14) Typically, the cells were passaged every 2-3 days in a ratio of 1:3 to 1:5.
(§15) 5× Matrigel was added to a 384-well cell plate at 5 μL/well for incubation in an incubator at 37° C. for 30 min, followed by digestion.
(§16) Cells were collected after digestion, counted, resuspended at 1×10^6 cells/mL using a culture medium, and added to a coated plate at 60 μL/well by using a Multidrop Combi to give a cell density of 6×10^4 cells/well, followed by incubating overnight at 37° C. at 5% CO2.
(§17) 3) Preparation of Uptake Assay Buffer
(§18) On the day of experiment, fresh buffer was prepared as needed.
(§19) 4) Preparation of Compounds (Using ECHO)
(§20) Working solutions of 11 concentrations were prepared for plotting a curve with stock solutions of 3 concentrations using PlateMap. The 3 concentrations were 30 mM, 0.3 mM, 0.003 mM, all formulated in DMSO.
(§21) 5) Preparation of a Mixed Solution of 6-Carboxyfluorescein (6 μM) and Compounds
(§22) According to amount used, 6-carboxyfluorescein (1 mM) was diluted with uptake assay buffer to give a diluted 6-carboxyfluorescein solution (6 μM). […] The mixture was preserved away from light for later use. The concentration of DMSO was 2% at this time.
(§23) The cells were incubated overnight before the culture medium was carefully removed. Then 80 μL of uptake assay buffer was added to each well at room temperature for washing the cells 3 times. After washing, 20 μL of uptake assay buffer was added to each well.
(§24) The mixed solution of 6-CF (6 μM) and compounds, prepared in step 5, was transferred to a cell plate at 20 μL/well with Bravo. The mixed solution was centrifuged at 400 rpm for 1 min, and incubated away from light at room temperature for 10 min. At this time, the concentration of 6-CF became 3 μM, the concentration of the compound became the final concentration, and the concentration of DMSO became 1%.
(§25) The cells were washed 3 times with pre-cooled uptake assay buffer at 80 μL/well, to remove unbound 6-CF.
(§26) The plate was read on the Envision. The data were recorded and processed to calculate IC50.
(§27) According to the fluorescence signals of HPE and ZPE on each cell plate, the inhibition rate (%) of the compound in each well on the cell plate was calculated.
(§28) The XLfit software was used to plot the curve for calculating the IC50 values of the compounds. The IC50 value of the positive compound was also one of the criteria for controlling the quality of each experiment.

For the next experiment, the target named is T2, OAT3 (Homo sapiens, UniProt Q8TCC7).
T2 construct: host or cells: HEK293/OAT3 (hygromycin B selection)
T2 sequence (Q8TCC7 1-542): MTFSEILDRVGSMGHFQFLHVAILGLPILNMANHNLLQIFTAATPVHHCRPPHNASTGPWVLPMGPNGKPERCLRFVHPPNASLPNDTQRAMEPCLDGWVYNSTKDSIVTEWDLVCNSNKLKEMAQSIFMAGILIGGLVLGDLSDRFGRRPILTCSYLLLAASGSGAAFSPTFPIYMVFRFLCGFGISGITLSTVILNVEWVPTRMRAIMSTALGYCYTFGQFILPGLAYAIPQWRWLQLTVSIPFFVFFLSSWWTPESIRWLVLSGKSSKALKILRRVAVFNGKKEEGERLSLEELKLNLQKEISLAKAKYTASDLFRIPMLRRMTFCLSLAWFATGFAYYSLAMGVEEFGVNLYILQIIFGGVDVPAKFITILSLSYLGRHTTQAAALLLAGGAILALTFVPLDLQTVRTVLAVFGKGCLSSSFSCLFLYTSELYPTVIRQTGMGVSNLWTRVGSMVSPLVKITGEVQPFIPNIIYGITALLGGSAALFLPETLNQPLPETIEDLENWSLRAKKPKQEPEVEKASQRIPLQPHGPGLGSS
In words: Inhibition of 6-carboxyfluorescein uptake in HEK293/OAT3 cells. In kind it is cell-based. Particulars: ratio of OAT3 IC50 to hURAT1 IC50 (selectivity). How it is done: as §1, §2, §3, §4, §5, §6, §7, §8, §9, §10, §11, §12, §13, §14, §15, §16, §17, §18, §19, §20, §21, §22, §23, §24, §25, §26, §27, §28

For the compound `CCc1nc2ncccn2c1C(=O)c1cc(Br)c(O)c(Br)c1` [Example 20, 2,6-dibromo-4-([2-ethylimidazo[1,2-a]pyrimidin-3-yl]carbonyl) phenol], the “IC50, OAT1/IC50, hURAT1” value on OAT1 was 8.0. Further, at OAT3, the “IC50, OAT3/IC50, hURAT1” value amounted to 8.7.
For `CCc1nc2ncc(Br)cn2c1C(=O)c1cc(Br)c(O)c(Br)c1` [Example 3, (6-bromo-2-ethylimidazo[1,2-a]pyrimidin-3-yl)(3,5-dibromo-4-hydroxyphenyl)methanone], the “IC50, OAT1/IC50, hURAT1” value on OAT1 was 13.8. Moreover, the “IC50, OAT3/IC50, hURAT1” value at OAT3 came to 8.9.
For `CCc1nc2cc(C(F)(F)F)ncn2c1C(=O)c1cc(Br)c(O)c(Br)c1` [Example 7, (3,5-dibromo-4-hydroxyphenyl)(2-ethyl-7-(trifluoromethyl)imidazo[1,2-c]pyrimidin-3-yl)methanone], in that order: 14.2 and 3.0.
Taken in the same sequence, the figures for `CCc1nc2ncc(F)cn2c1C(=O)c1cc(Br)c(O)c(Br)c1` [Example 4, (3,5-dibromo-4-hydroxyphenyl)(2-ethyl-6-fluoroimidazo[1,2-a]pyrimidin-3-yl)methanone] were 55.0 and 36.5.
For `CCc1nc2cc(Cl)ncn2c1C(=O)c1cc(Br)c(O)c(Br)c1` [Example 21, (7-chloro-2-ethylimidazo[1,2-f]pyrimidin-3-yl)(3,5-dibromo-4-hydroxyphenyl)methanone], in that order: 3.8 and 5.5.
On to `CCn1nc2ccncc2c1C(=O)c1cc(Br)c(O)c(Br)c1` [Example 16, (3,5-dibromo-4-hydroxyphenyl)(2-ethyl-2H-pyrazolo[4,3-c]pyridin-3-yl)methanone], for which, at OAT1, the “IC50, OAT1/IC50, hURAT1” value was determined as 17.4. In addition, the “IC50, OAT3/IC50, hURAT1” value at OAT3 was 3.1.
For `CCc1nc2ncc(C(F)(F)F)cn2c1C(=O)c1cc(Br)c(O)c(Br)c1` [Example 5, (3,5-dibromo-4-hydroxyphenyl)(2-ethyl-6-(trifluoromethyl)imidazo[1,2-a]pyrimidin-3-yl)methanone], in that order: 34.4 and 21.1.
For `CCc1nc2ncccn2c1C(=O)c1cc(Br)c(O)c(C(F)(F)F)c1` [Example 23, (3-bromo-4-hydroxy-5-(trifluoromethyl)phenyl)(2-ethylimidazo[1,2-a]pyrimidin-3-yl)methanone], in that order: 5.2 and 10.3.
For `CCc1nc2ncc(F)cn2c1C(=O)c1cc(Br)c(O)c(C#N)c1` [Example 14, 3-bromo-5-(2-ethyl-6-fluoroimidazo[1,2-a]pyrimidine-3-carbonyl)-2-hydroxybenzonitrile], in that order: 3.5 and 3.6.
For `CCn1nc2ccc(F)cc2c1C(=O)c1cc(Br)c(O)c(Br)c1` [Example 9, (3,5-dibromo-4-hydroxyphenyl)(2-ethyl-5-fluoro-2H-indazol-3-yl) methanone], the “IC50, OAT1/IC50, hURAT1” value at OAT1 is 7.6. The “IC50, OAT3/IC50, hURAT1” value on OAT3 is listed as 2.0.
With `CCc1nc2ncc(F)cn2c1C(=O)c1cc(Br)c(O)c(C(F)(F)F)c1` [Example 18, (3-bromo-4-hydroxy-5-(trifluoromethyl)phenyl)(2-ethyl-6-fluoroimidazo[1,2-a]pyrimidin-3-yl)methanone], the “IC50, OAT1/IC50, hURAT1” value at OAT1 is given as 24.5. In addition, the “IC50, OAT3/IC50, hURAT1” value at OAT3 amounted to 16.2.
As for `CCc1nc2ncc(Cl)cn2c1C(=O)c1cc(Br)c(O)c(Br)c1` [Example 6, (6-chloro-2-ethylimidazo[1,2-a]pyrimidin-3-yl)(3,5-dibromo-4-hydroxyphenyl)methanone], the “IC50, OAT1/IC50, hURAT1” value at OAT1 amounted to 33.6. Moreover, the “IC50, OAT3/IC50, hURAT1” value on OAT3 is recorded as 24.8.
Taken in the same sequence, the figures for `CCc1nc2ncccn2c1C(=O)c1cc(Br)c(O)c(C#N)c1` [Example 22, 3-bromo-5-(2-ethylimidazo[1,2-a]pyrimidine-3-carbonyl)-2-hydroxybenzonitrile] were 2.0 and 1.4.
